The test system of assay [1] is rat plantarflexor muscles. Description: Rat plantar flexor force and power in situ. It is filed as in vivo. The text has this:
Rats were placed under anesthesia using isoflurane and the sciatic nerve of the experimental leg exposed. The rat was then placed on the platform of an Aurora in-situ muscle analysis rig (806C), maintained at body temperature via a circulating water system. The knee was immobilized in a clamp between two sharpened screws and the foot attached securely to the footplate of a force transducer (Aurora Scientific, Ontario, Canada) using laboratory tape. The muscle was stimulated directly via the sciatic nerve. For isolation of the nerve, a 1 cm incision was made at the upper thigh and the overlying muscle was dissected to expose an approximate 5 mm stretch of the sciatic nerve. This was then dissected free of surrounding connective tissue and a pair of stainless steel needle electrodes (0.10 mm) were hooked around the exposed nerve. The peroneal branch was severed to remove innervation to the plantar-extensor muscle groups. Muscle contractile properties were assessed by applying an electrical current to the nerve and recording the force generated by the muscle via a servomotor. Isokinetic contractile properties were assessed as force generated during a pre-programmed movement of the footplate. Footplate movements were 0.7 radians in size ([…]).
Solutions of Compound A (50% PEG300/10% EtOH/40% cavitron formulation) were administered via a femoral vein catheter as a single slow bolus over a 2 min period, with a maximal dosage volume of 5 ml/Kg. During the experiment, blood was drawn via the tail vein for compound concentration analysis. At the end of each assay, the length and weight of the muscle was recorded, and measured force normalized to the mass of the muscle (N/g).
Compound A increased force generation throughout the curve to generate a total of 55% more work over the 300 second period, while maintaining a similar profile to that of the vehicle.
The same protocol was repeated with a second skeletal muscle troponin activator, 1-((1R)-1-methylpropyl)-6-chloro-7-pyrazolylimidazo[4,5-b]pyridin-2-ol (Compound B). Compound B and analogous skeletal muscle troponin activators are disclosed in U.S. Pat. No. 7,989,469. […] 0.7 radian displacement and stimulation frequency calculated to provide 50% of maximum isokinetic tension. Compound B maintained force generation throughout the curve, at almost 50% of vehicle stimulation frequency, to generate the same total work over the 300 second period, while maintaining a similar profile to that of the vehicle.

Another assay relates to healthy rats. The experiment in a line: Rotarod running assay. As to conditions: control treatments by oral gavage: 300 mg/kg (60 min), caffeine 10 mg/kg (30 min), phosphoserine 1000 mg/kg (24 hours prior). Type of assay: in vivo, rat. The method, then: Female Sprague Dawley rats (210-260 g) were obtained from Charles River Laboratories and acclimated in the test facility for a minimum of six days prior to the start of the study. All rats were trained the day prior to compound administration. Training consisted of placing the rats on the rotating drum (rod), starting at a low constant speed (10 RPM). The rats were acclimated to walk on the drum for 5 minutes before resting. A second training session of an increasing speed from 14-16 RPM was initiated after all rats in the experimental group had finished the first training session. […] On the day of the experiment animals were dosed thirty minutes prior to start of test. The test began with a 5 minute primer session, whereby animals were run at an increasing speed from 14-16 RPM over 5 minutes. Rats were then run at a constantly accelerating rate from 12 RPM to 25 RPM over the course of 10 minutes. […] Time to fall was recorded, with the test being terminated at 900 seconds. Compound A was administered via oral gavage 30 minutes prior to assessment. Each dose was formulated as a suspension containing 0.2% Tween 80, 0.5% HPMC and water. Dose volume was 5 mL/kg. Vehicle (0.2% Tween 80, 0.5% HPMC and water) was administered similarly. Control treatments were chosen based on association with amelioration of central fatigue (caffeine, Davis 2003), muscular fatigue (creatine, Boyadjiev, 2007) and dual central/muscular fatigue (phosphoserine, […] 1976).
(In general: In the rotarod test animals must keep their balance on a rotating rod.)

Another assay has as its system mouse EDL muscle. To be noted: cited from earlier work.

For “1-((1R)-1-methylpropyl)-6-chloro-7-pyrazolylimidazo[4,5-b]pyridin-2-ol [Compound B]”, in assay [1] (at 3.1 radians/s), the “isokinetic force frequency relationship” value is given as “increased in the submaximal range in a dose dependent manner”. Further, the force-velocity relationship result in assay [1] (at 30 Hz) is “increased across all velocities in a dose and velocity dependent manner”. The power output entry in assay [1] (corresponding to force velocities at 30 Hz) is “dose-dependent increase”. Also, the “isometric force frequency relationship” value in assay [1] (in situ) is listed as “increased in the submaximal range in a dose dependent manner”. Moreover, the “stimulation frequency to generate the same total work” value in assay [1] (isokinetic fatigue protocol at 50% of maximum isokinetic tension, 300 second period) is listed as ~50 % of vehicle stimulation frequency. Also, the “more total work over the 300 second period” value in assay [1] (isokinetic fatigue protocol, 1 flexion per second at 3.1 radians/s, 30 Hz, vs vehicle) is on record as 105%.
For `Cn1c(=O)c2c(ncn2C)n(C)c1=O` [caffeine, reference compound], in the assay with healthy rats, the “running time vs vehicle” value was “no significant difference”. Also, in the assay on mouse EDL muscle (repeated 60 Hz stimulation over 6 minutes), the “tetanic tension and muscle fatigue” value was “increased initial tetanic EDL tension but accelerated and accentuated muscle fatigue”.
With `CN(CC(=O)O)C(=N)N` [creatine, reference compound], the “running time vs vehicle” value with healthy rats is on record as “no significant difference”.
Turning to `O=C1CN(/N=C/c2ccc(-c3ccc([N+](=O)[O-])cc3)o2)C(O)=N1` [dantrolene], the “tetanic tension and fatigue development” value in the assay with mouse EDL muscle (20 μM) is “decreased early tetanic tension yet abolished overall fatigue development”.
For the compound `N[C@@H](COP(=O)(O)O)C(=O)O` [phosphoserne, phosphoserine, reference compound], the “running time vs vehicle” value in the assay on healthy rats is reported as “no significant difference”.

The record behind these values is patent US20190167676A1, “METHODS FOR IMPROVING RESISTANCE TO SKELETAL MUSCLE FATIGUE” (Cytokinetics, Inc., priority 2012, published 2019).
